In US12403132B2, “Methods of treating bone marrow failure syndromes and compositions for use in the same” (The Board of Trustees of the Leland Stanford Junior …, priority 2020, dated 2025):

Tests used:
CD235+ erythroblasts = test: CD235+ erythroblast differentiation of CD34+ HSPCs from DBA patient bone marrow; format: cell-based, human; conditions: DBA patient samples, 5 μM SD208
Experimental: FIG. 8. NLK inhibition increases expansion of erythroid progenitors from human and murine models of DBA. Human cord blood CD34+ progenitors were transduced with lentivirus co-expressing GFP with shRNA against luciferase (shLuc), RPS19 (shRPS19) or RPL11 (shRPL11). After 36 hours cells GFP+ cells were differentiated in erythroid media in the presence or absence of 5 μM SD208 for 15 days. Cells were counted and assessed for cell surface expression of CD235. (a) The percentage of CD235+ cells was multiplied by the cell count and values were compared as a percentage of untreated controls. (b) Normalizing values relative to untreated RPS19-insufficiency progenitors facilitates direct comparison of erythropoiesis between untreated and SD208-treated cultures. (c) Approximately 3000 cells were removed from differentiating treatments at day 6 and NLK activity was assessed. […] Values were expressed as a percentage relative to untreated controls (e) and directly comparing the effect of SD208 on erythropoiesis in ribosomal-insufficiency by expressing values relative to untreated ribosome-insufficient cultures (f). […] After counting the total cell population, the ratio of CD235+ erythroblasts was determined by flow cytometry and number of CD235+ erythroblasts calculated. This was expressed as a percentage of the average number of erythroid cells present in untreated healthy controls. […]

Solubility = format: physicochemical; conditions: data not shown
[1] = test system: miR-26a and other miRNAs (let-7, miR-30, miR-181, miR-199, miR-144); test: miRNA expression by qRT-PCR in differentiating human CD34+ progenitors; format: cell-based
Experimental: FIG. 14. Metformin-mediated upregulation of miR-26a in human progenitors suppresses NLK expression. (Panel A) Human CD34+ (upper) and murine Lin-Kit+ (lower) progenitors were differentiated for 8 days in the presence or absence of metformin and the levels of indicated miRNAs were assessed by qRT-PCR. (Panel B) K562 cells stably expressing the luciferase gene coupled to the NLK 3′UTR were mock transfected, transfected with indicated miRNA mimetics, or treated with metformin, and cultured in the presence or absence of metformin for 72 hrs. After lysis, luciferase activity was determined and endogenous NLK and GAPDH protein expression was analyzed by Western blot. (Panel C) K562 cells were mock transfected, or transfected with either miR-34 or miR-26 sponges, prior to being left untreated or treated with metformin for 72 hrs. Lysed cells were subjected to luciferase assay and western blotting to examine NLK and GAPDH protein expression. […] Statistics: two-tailed Student's t test, significant *P<0.05
FIG. 15. MiR-26a mimetic substitutes for metformin in improving erythropoiesis in RPS19-insufficiency. (Panel A) Human CD34+ cells were transduced with shRNA against a control (shLuc) or RPS19 (shRPS19) and transfected with a miR-26a mimetic or a mock control. After differentiation in the absence or presence of metformin for 12 days, cells were counted and the percentage of CD235+ erythroblasts determined by flow cytometry. The calculated CD235+ population of each treatment group is represented as a percentage of the untreated control group (upper). In parallel, qRT-PCR was performed to determine mRNA expression of NLK (middle) and miR-26a (lower). (Panel B) Lin-Kit+ progenitors for RPL11+/+ and RPL+/lox mice were mock transfected or transfected with miR-26a mimetic and differentiated for 8 days. Cells were subjected to counting and the percentage of Ter119+ erythroblasts determined (upper) in conjunction with qRT-PCR examining NLK (middle) and miR-26a (lower) mRNA expression. […] Statistics: two-tailed Student's t test, significant *P<0.05
MessengerRNA was quantified as described (5). MicroRNA was quantified using TaqMan® Small RNA Assays (Applied Biosystems) as per manufacturer's directions and normalized to snoRNA.

NLK = NLK expression and NLK activity in murine progenitors; format: cell-based, mouse; conditions: control, RPS19- or RPL11-insufficient mice, metformin
Description: (§1) FIG. 11. […] Statistics: two-tailed Student's t test, significant *P<0.05

[2] = test system: zebrafish (Danio rerio) embryos; test: Zebrafish rps19 morpholino model, o-dianisidine hemoglobin staining; format: in vivo
Description: as §1

Structure (SMILES) | mean increase in erythroid expansion (CD235+ erythroblasts) | solubility (Solubility) | miR-26a level ([1]; RPS19-insufficiency) | miR-26a level ([1]; control) | upregulation of miR-26a ([1]; human CD34+ progenitors in erythroid media, metformin, 8 days) | expression of other miRNA species (let-7, miR-30, miR-181, miR-199, miR-144) ([1]; human CD34+ progenitors, metformin) | impact on NLK activity (NLK) | impact on NLK expression (NLK) | heart conditions ([2]; 20 mM metformin) | O'dianisidine (hemoglobin) staining ([2]; 20 mM metformin from 4 to 5 hpf, day 3)
Fc1ccc(Cl)cc1-c1nc(Nc2ccncc2)c2nccnc2n1 [SD208] | 2.11 fold | poor solubility | – | – | – | – | – | – | – | –
CN(C)C(=N)N=C(N)N [metformin] | – | – | 2.5 fold | 2.4 fold | 2.4 fold | did not alter | no impact | no impact | persisted | dramatically restored
